This experiment has as its target T1, CCR2 (Homo sapiens, UniProt P41597).
T1 sequence (P41597 1-360 isoform P41597-2): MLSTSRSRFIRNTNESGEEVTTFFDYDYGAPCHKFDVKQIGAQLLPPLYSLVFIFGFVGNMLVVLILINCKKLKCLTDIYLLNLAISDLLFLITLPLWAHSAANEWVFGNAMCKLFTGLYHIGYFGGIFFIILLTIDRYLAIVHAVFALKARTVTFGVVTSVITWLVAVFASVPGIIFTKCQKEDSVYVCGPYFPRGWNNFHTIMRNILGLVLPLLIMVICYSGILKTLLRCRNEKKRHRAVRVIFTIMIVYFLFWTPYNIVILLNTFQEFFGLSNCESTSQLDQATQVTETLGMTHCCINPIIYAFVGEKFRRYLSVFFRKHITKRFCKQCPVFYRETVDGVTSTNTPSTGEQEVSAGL
The experiment is described as follows: Binding assay: inhibition of 125I-MCP-1 binding to THP-1 cells. Also noted: CCR2 is also expressed in the human monocytic cell line THP-1; endogenous in cells; host or cells: THP-1 (human monocytic cell line), whole cells. The following applies: THP-1 cells, 0.1 nM 125I-MCP-1, 1 hr at room temperature; read-out: Inhibition of 125I-MCP-1 binding to THP-1 cells, IC50. As to the method:
Antagonism of the CCR2 receptor is determined by a binding assay using the human monocytic cell line THP-1. Cells are suspended in assay buffer (RPMI+1% BSA+25 mM HEPES) at 3×10^6 cells/ml and an aliquot (180 μl) added to a 0.5 ml siliconized Eppendorf tube. […] After incubation for 1 hr at room temperature, the cell suspension is centrifuged through oil and the cell pellets counted to quantitate cell-bound ligand. Nonspecific (NS) binding of radioligand is determined by the addition of 100 nM cold MCP-1. Control binding is determined by the addition of buffer without compound.

pIC50: −log10 of the molar value.

What is called pIC50 is the negative decadic logarithm of the IC50, by convention in mol/L. Consider `CC(=O)C1=C(S)C(=O)N(c2ccc(Cl)cc2F)C1C1CCCCC1` (racemic) [Compound 169, 4-acetyl-1-(4-chloro-2-fluorophenyl)-5-cyclohexyl-3-sulfanyl-1,5-dihydro-2H-pyrrol-2-one], for which the pIC50 is at least 5.30.

On to `CC(=O)C1=C(O)C(=O)N(c2ccc(C)c(F)c2)C1C1CCCCC1` (racemic) [Compound 47, 4-acetyl-5-cyclohexyl-1-(3-fluoro-4-methylphenyl)-3-hydroxy-1,5-dihydro-2H-pyrrol-2-one], for which the negative logarithm of the IC50 (pIC50) is at least 5.30.

Regarding `CC(=O)C1=C(O)C(=O)N(c2ccc(Cl)c([N+](=O)[O-])c2)C1C1CCCCC1` (racemic) [Compound 66, 4-acetyl-1-(4-chloro-3-nitrophenyl)-5-cyclohexyl-3-hydroxy-1,5-dihydro-2H-pyrrol-2-one], the pIC50 was at least 5.30.

`C=C1CCC(C2C(C(C)=O)=C(O)C(=O)N2c2ccc(Cl)cc2)CC1` (racemic) [Compound 127, 4-acetyl-1-(4-chlorophenyl)-3-hydroxy-5-(4-methylenecyclohexyl)-1,5-dihydro-2H-pyrrol-2-one]: the pIC50 is at least 5.30.

With `CC(=O)C1=C(O)C(=O)N(c2ccc(C)cc2)C1C1CCCCCC1` (racemic) [Compound 68, 4-acetyl-5-cycloheptyl-3-hydroxy-1-(4-methylphenyl)-1,5-dihydro-2H-pyrrol-2-one], the pIC50 is at least 5.30.

On to `CC(=O)C1=C(O)C(=O)N(c2ccc(Cl)cn2)C1C1CCCCC1` (racemic) [Compound 172, 4-acetyl-1-(5-chloro-2-pyridinyl)-5-cyclohexyl-3-hydroxy-1,5-dihydro-2H-pyrrol-2-one], for which the pIC50 was at least 5.30.

As to `CC(=O)C1=C(O)C(=O)N(c2c(F)cc(Cl)cc2F)[C@@H]1C1CCCCC1` (stereo in doubt) [Compound 148, (R)-4-acetyl-1-(4-chloro-2,6-difluorophenyl)-5-cyclohexyl-3-hydroxy-1,5-dihydro-2H-pyrrol-2-one], the pIC50 was at least 5.30.

Take `CC(=O)C1=C(O)C(=O)N(c2ccc(Cl)cc2)C1C1CC2C=CC1C2` (stereo not drawn) [Compound 121, 4-acetyl-5-bicyclo[2.2.1]hept-5-en-2-yl-1-(4-chlorophenyl)-3-hydroxy-1,5-dihydro-2H-pyrrol-2-one]: the pIC50 is at least 5.30.

For `CCc1ccc(N2C(=O)C(O)=C(C(C)=O)C2C2CCCCC2)cc1` (racemic) [Compound 77, 4-acetyl-5-cyclohexyl-1-(4-ethylphenyl)-3-hydroxy-1,5-dihydro-2H-pyrrol-2-one], the pIC50 was at least 5.30.

Take `CC(=O)C1=C(O)C(=O)N(c2ccc3c(c2)CCC3)C1C1CCCCC1` (racemic) [Compound 63, 4-acetyl-5-cyclohexyl-1-(2,3-dihydro-1H-inden-5-yl)-3-hydroxy-1,5-dihydro-2H-pyrrol-2-one]: the pIC50 was at least 5.30.

As for `Cc1ccc(N2C(=O)C(O)=C(C(=O)C(C)(C)C)C2C2CCCCC2)cc1` (racemic) [Compound 41, 5-cyclohexyl-4-(2,2-dimethylpropanoyl)-3-hydroxy-1-(4-methylphenyl)-1,5-dihydro-2H-pyrrol-2-one], the negative logarithm of the IC50 (pIC50) is at least 5.30.

As for `CC(=O)C1=C(O)C(=O)N(c2ccc(Cl)cc2)C1C1CCCC1` (racemic) [Compound 118, 4-acetyl-1-(4-chlorophenyl)-5-cyclopentyl-3-hydroxy-1,5-dihydro-2H-pyrrol-2-one], the pIC50 is at least 5.30.

On to `CCC(CC)C1C(C(C)=O)=C(O)C(=O)N1c1ccc(C)cc1` (racemic) [Compound 13, 4-acetyl-5-(1-ethylpropyl)-3-hydroxy-1-(4-methylphenyl)-1,5-dihydro-2H-pyrrol-2-one], for which the pIC50 was at least 5.30.

Take `CC(=O)C1=C(O)C(=O)N(c2ccc(F)c(C)c2)C1C1CCCCC1` (racemic) [Compound 64, 4-acetyl-5-cyclohexyl-1-(4-fluoro-3-methylphenyl)-3-hydroxy-1,5-dihydro-2H-pyrrol-2-one]: the pIC50 was at least 5.30.

With `CC(=O)C1=C(N)C(=O)N(c2ccc(C)cc2)C1C1CCCCC1` (racemic) [Compound 61, 4-acetyl-3-amino-5-cyclohexyl-1-(4-methylphenyl)-1,5-dihydro-2H-pyrrol-2-one], the pIC50 is at least 5.30.

In the case of `CC(=O)C1=C(O)C(=O)N(c2ccc(Cl)c(Cl)c2)C1C1CCCCC1` (racemic) [Compound 48, 4-acetyl-5-cyclohexyl-1-(3,4-dichlorophenyl)-3-hydroxy-1,5-dihydro-2H-pyrrol-2-one], the pIC50 was at least 5.30.

As for `CNC(=O)C1=C(O)C(=O)N(c2ccc(C)cc2)C1C1CCCCC1` (racemic) [Compound 126, 2-cyclohexyl-4-hydroxy-N-methyl-1-(4-methylphenyl)-5-oxo-2,5-dihydro-1H-pyrrole-3-carboxamide], the negative logarithm of the IC50 (pIC50) was at least 5.30.

For the molecule `CC(=O)C1=C(O)C(=O)N(c2ccc(C)cc2)C1CC(C)C` (racemic) [Compound 40, 4-acetyl-3-hydroxy-5-isobutyl-1-(4-methylphenyl)-1,5-dihydro-2H-pyrrol-2-one], the pIC50 was at least 5.30.

Turning to `CCCC1C(C(C)=O)=C(O)C(=O)N1c1ccc(C)c(C)c1` (racemic) [Compound 74, 4-acetyl-1-(3,4-dimethylphenyl)-3-hydroxy-5-propyl-1,5-dihydro-2H-pyrrol-2-one], the pIC50 was at least 5.30.

For the molecule `CC(=O)C1=C(O)C(=O)N(c2ccc(F)cc2F)C1C1CCCCC1` (racemic) [Compound 62, 4-acetyl-5-cyclohexyl-1-(2,4-difluorophenyl)-3-hydroxy-1,5-dihydro-2H-pyrrol-2-one], the negative logarithm of the IC50 (pIC50) was at least 5.30.

For the molecule `CC(=O)C1=C(O)C(=O)N(c2c(F)cc(Cl)cc2F)[C@H]1C1CCCCC1` (stereo in doubt) [Compound 147, (S)-4-acetyl-1-(4-chloro-2,6-difluorophenyl)-5-cyclohexyl-3-hydroxy-1,5-dihydro-2H-pyrrol-2-one], the pIC50 is at least 5.30.

In the case of `CC(=O)C1=C(O)C(=O)N(c2ccc(C)cc2)C1C1C=CCCC1` (stereo not drawn) [Compound 50, 4-acetyl-5-(cyclohex-2-en-1-yl)-3-hydroxy-1-(4-methylphenyl)-1,5-dihydro-2H-pyrrol-2-one], the pIC50 was at least 5.30.

Turning to `CC(=O)C1=C(O)C(=O)N(c2ccc(Cl)cc2)C1CC1CCCC1` (racemic) [Compound 134, 4-acetyl-1-(4-chlorophenyl)-5-(cyclopentylmethyl)-3-hydroxy-1,5-dihydro-2H-pyrrol-2-one], the pIC50 was at least 5.30.

Turning to `CC(=O)C1=C(O)C(=O)N(c2ccc(C)cc2)C1C1CCCC1` (racemic) [Compound 56, 4-acetyl-5-cyclopentyl-3-hydroxy-1-(4-methylphenyl)-1,5-dihydro-2H-pyrrol-2-one], the pIC50 was at least 5.30.

As for `COc1ccc(N2C(=O)C(O)=C(C(C)=O)C2C2CCCCC2)cc1` (racemic) [Compound 14, 4-acetyl-5-cyclohexyl-3-hydroxy-1-(4-methoxyphenyl)-1,5-dihydro-2H-pyrrol-2-one], the negative-log IC50 (pIC50) is at least 5.30.

On to `CSC1=C(O)C(=O)N(c2ccc(Cl)cc2)C1C1CCCCC1` (racemic) [Compound 128, 1-(4-chlorophenyl)-5-cyclohexyl-3-hydroxy-4-(methylthio)-1,5-dihydro-2H-pyrrol-2-one], for which the pIC50 is at least 5.30.

For the molecule `CC(=O)C1=C(O)C(=O)N(c2ccc(C)cc2)C1C12CC3CC(CC(C3)C1)C2` (racemic) [Compound 58, 4-acetyl-5-(1-adamantyl)-3-hydroxy-1-(4-methylphenyl)-1,5-dihydro-2H-pyrrol-2-one], the pIC50 was at least 5.30.

As to `CC(=O)C1=C(O)C(=O)N(c2c(F)cc(Br)cc2F)C1C1CCCCC1` (racemic) [Compound 154, 4-acetyl-1-(4-bromo-2,6-difluorophenyl)-5-cyclohexyl-3-hydroxy-1,5-dihydro-2H-pyrrol-2-one], the pIC50 was at least 5.30.

On to `CCC(C)C(C)C1C(C(C)=O)=C(O)C(=O)N1c1ccc(C)cc1` (stereo not drawn) [Compound 19, 4-acetyl-5-(1,2-dimethylbutyl)-3-hydroxy-1-(4-methylphenyl)-1,5-dihydro-2H-pyrrol-2-one], for which the pIC50 is at least 5.30.

Regarding `CC(=O)C1=C(O)C(=O)N(c2ccc(Cl)c(C)c2)[C@@H]1C1CCCC1` [Compound 135, (R)-4-acetyl-1-(4-chloro-3-methylphenyl)-5-cyclopentyl-3-hydroxy-1,5-dihydro-2H-pyrrol-2-one], the pIC50 was at least 5.30.

For the molecule `CC(=O)C1=C(O)C(=O)N(c2ccc(C(F)(F)F)cc2)C1C1CCCCC1` (racemic) [Compound 49, 4-acetyl-5-cyclohexyl-3-hydroxy-1-[4-(trifluoromethyl)phenyl]-1,5-dihydro-2H-pyrrol-2-one], the pIC50 was at least 5.30.

Regarding `CC(=O)C1=C(O)C(=O)N(c2ccc(F)cc2)[C@@H]1C1CCCC1` [Compound 137, (R)-4-acetyl-5-cyclopentyl-1-(4-fluorophenyl)-3-hydroxy-1,5-dihydro-2H-pyrrol-2-one], the negative logarithm of the IC50 (pIC50) was at least 5.30.

`CC(=O)C1=C(O)C(=O)N(c2ccc(C)cc2)C1c1ccc(Br)cc1` (racemic) [Compound 20, 4-acetyl-5-(4-bromophenyl)-3-hydroxy-1-(4-methylphenyl)-1,5-dihydro-2H-pyrrol-2-one]: the pIC50 is at least 5.30.

(Values after patent US6727275B2, “Pyrrolidinone derivatives” (UCB, S.A./N.V., priority 2001, dated 2004).)
